Reference: US8614240B2, “Benzoxazole derivatives having inhibitory activity against interleukin-6, preparation method thereof, and pharmaceutical composition containing the same” (EWHA University-Industry Collaboration Foundation, priority 2010, dated 2013)

Key:
[1] = test system: IL-6 induced STAT3 phosphorylation; experiment: Test for inhibitory activity against STAT3 phosphorylation induced by IL-6 (Western blot, HepG2); type: cell-based, human; conditions: HepG2, 1, 3, 10, 30, 100 ug/ml, 10 ng/ml IL-6 (FIG. 4)
Method: HepG2 cells were divisionally inoculated in 6-well plate in the ratio of 5×10^4 cells/well, and grown to be 80% confluent. After changing to a serum-free medium and incubating for 6 hours, cells were pre-treated with the samples for one hour. […] Then the mixture was centrifuged (13,000×g, 15 minutes) to obtain a lysate as the supernatant. Herein, HepG2 cells not treated with IL-6 and the samples were used as the control group. The concentration of proteins was quantified by means of Bio-Rad DC protein assay kit, and the protein was loaded on 10% SDS-polyacrylamide gel (SDS-PAGE) and electrophoresed at 30 mA for 2 hours. After completion of the electrophoresis, the protein on gel was transcribed into PVDF membrane (Westran® S, pore size […]) at 90V for 90 minutes, and the transcribed membrane was blocked with Tris-buffered solution (T-TBS; 50 mM Tri-HCl, pH 7.6, 150 mM NaCl, 0.2% Tween-20, 5% skim milk) at 4° C. for 12 hours, and washed five time with T-TBS. The membrane was treated with polyclonal antibodies of phospho-STAT3 (1:1000 dilutions, respectively) as the primary antibody for 2 hours. After washing five times with T-TBS, the membrane was reacted with HRP-conjugated anti-rabbit antibody (1:5000 dilutions) as the secondary antibody for one hour. After washing with T-TBS, the film was developed in the dark room by means of ECL.

[2] = test system: IL-6 reactive STAT3 reporter gene; experiment: IL-6 reactive STAT3 reporter gene test (pSTAT3-TA-Luc6 luciferase) in HepG2 cells; type: cell-based; conditions: Homo sapiens
Method: A pSTAT3-TA-Luc6 construct, which comprises 8 more STAT3 DNA binding sequence copies as compared to pSTAT-3-TA-Luc and thus, enables to better reflect STAT3 reporter gene assay, was prepared. STAT3 DNA binding sequence was amplified using pSTAT3-TA-Luc plasmid (Clontech, Palo Alto, Calif.) as the template, and oligonucleotide ([…]. SEQ ID NO: 1 (containing Kpn I site)) and oligonucleotide ([…] GAAGCAACGTTC (containing Xho I site)) as forward primer and reverse primer, respectively, by means of a thermocycler. The amplified PCR product was cloned, separated, and then inserted into Kpn I/Xho I site of pSTAT3-TA-Luc plasmid.
Human hepatoma cell line, HepG2 cell, was incubated in MEM (Minimal Essential Medium, WelGENE Inc, Daegu, Korea) medium under water-saturated condition at 37° C., 5% CO2. To this medium was added 10% (v/v) fetal bovine serum, streptomycin (100 U/mL) and penicillin (100 U/mL). 6-Well cell culture plate was allowed to grow cells up to 80%, and then the specimen was pre-treated for one hour. Then, the medium was changed into 50 μL of serum-free medium, and the mixed solution of 0.1 μL pSTAT3-TA-Luc6 construct and 0.3 μL lipofectamin reagent was added to each well and then allowed to react for 3 hours to transfect cells with pSTAT3-TA-Luc6 construct. The medium was changed to a fresh medium, and the plate was incubated for 24 hours to transiently transfect cells. The transfected cells were serum-starved with 1% BSA/DMEM, and treated with the samples for one hour and then, after adding IL-6, incubated for 3 hours. The mixture was washed with PBS, shaken for one minute with addition of 50 μL of lysis buffer (promega luciferase assay system). After adding 30-100 μL of luciferase substrate (Promega luciferase assay system), the mixture was measured by a luminometer within 5 minutes.
Among others Compounds 1 and 3 as the materials having high inhibitory effect on IL-6 activity were used at various concentration to measure the degree of inhibitory effect, and the results thereof are as shown in FIGS. 2 and 3.

[3] = test system: Respective cell lines; experiment: Cytotoxicity assay (MTT); type: cell-based; conditions: 48 hours
Method: In testing the compounds in cell lines, if cells are killed due to a toxicity of the compounds at the treatment concentration, a significant result cannot be obtained. Therefore, the toxicity assay was conducted by treatment with the compounds as follows. Respective cell lines were maintained on 96-well cell culture plate in the medium comprising 10% FBS with 1% Penicillin G/streptomycin, and then incubated under 37° C., 5% CO2 condition. All the experiments were repeated three times. The samples were properly diluted, and then cells were treated with the diluted samples at the concentrations of 1, 3, 10, 30, 100 μg/ml. After 48 hours, 10% (v/v) 5 mg/mL 3-(4,5-dimethylthiazol-2-yl)-2,5-diphenyltetrazolium bromide (MTT; Sigma) was added to the cell culture. After 3 hours of the incubation, the medium was aspirated and washed with PBS. After adding DMSO (100 μl), the mixture was gently agitated for 5 minutes. The absorbance was measured at 570 nm by means of VERSA max microplate reader (Molecular Devices Inc.), and the average absorbance (±SE) values as obtained from three experiments were compared with t-test, a statistical significance of P<0.05. When Compounds 1 and 3 were used at the concentrations of 1, 3, 10, 30, 100 μg/ml, the survival rates of cells were 94, 76, 70, 67, 30%, respectively, by the treatment with Compound 1, and 74, 71, 65, 57, 19%, respectively, by the treatment with Compound 3. It means that at least 50% of cells survive at the concentration (for example, 30 μg/ml) of the compounds of the present invention for measuring IL-6 inhibitory activity.

CCc1ccc(Nc2nc3cc(NC(=O)c4ccccc4)ccc3o2)cc1 [Compound 3, N-(2-(4-ethylphenylamino)benzo[d]oxazol-5-yl)benzamide]
Inhibitory activity on IL-6 induced STAT3 phosphorylation [1]: inhibited IL-6 expression in a concentration-dependent manner | IC50 ([2]; HepG2, read-out: IC50 of IL-6 inhibitory activity (STAT3 reporter gene)): 5.8 µM | inhibition at 20 µg/mL ([2]; HepG2, read-out: Inhibition % of IL-6 reactive STAT3 reporter gene activity, 20 ug/ml of sample, HepG2 cells): > 80% | Survival rate of cells ([3]; 1 μg/ml): 74% | Survival rate of cells ([3]; 3 μg/ml): 71% | Survival rate of cells ([3]; 10 μg/ml): 65% | Survival rate of cells ([3]; 30 μg/ml): 57% | Survival rate of cells ([3]; 100 μg/ml): 19%
